Common to all, as to assay: NCI tumour cell line growth inhibition, 48 h
Assay [1] relates to DU-145 prostate.
Assay [2] concerns T-47D breast.
The subject of assay [3] is MDA-N.
Assay [4] deals with PC-3 prostate.
Assay [5] has as its system DMS 273 small cell lung.
The test system of assay [6] is XF 498 CNS.
For assay [7], the system named is DLD-1 colon.
Assay [8] concerns RXF-631 renal.
Assay [9] relates to P388/ADR leukemia.
In assay [10] the test system is P388 leukemia.
For assay [11], the system named is NCI/ADR-RES ovarian.

Each structure is given as a SMILES string. Values joined by “and” are separate entries in the source; they are usually repeats but may differ in a detail not shown here. Equal entries are not always repeated.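 Grown in 96-well plates, cells were treated for 48 hours with each compound at five concentrations. Insufficient inhibition: endpoint recorded as highest concentration tested. Abbreviation: GI50, concentration required for 50% inhibition of growth. TGI denotes the concentration required for complete inhibition of growth.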 Where only a bound is given, the exact number is not on record here.

For the compound `O=C1/C(=C/c2ccccc2)CN(C(=O)/C=C/c2ccccc2)C/C1=C\c1ccccc1`, the TGI was 40.9 µM in assay [1]; 15.1 µM in assay [2]; 3.43 µM in assay [3]; 4.33 µM in [4]; more than 100 µM in assay [5]; 38 µM in assay [6]. Moreover, the TGI in assay [7] was 11.3 µM; in assay [8], more than 100 µM.

For `CCOC(=O)c1ccc(N[C@@H]2c3cc4c(cc3C(c3cc(OC)c(O)c(OC)c3)[C@H]3C(=O)OCC32)OCO4)cc1` (stereo partly specified), the TGI in [1] was more than 100 µM; in assay [4], 20.6 µM; in [5], 3.85 µM; in [6] it was 0.979 µM and 5.6 µM; in assay [9], 0.0959 µM; in [7], 8.02 µM. For the same compound, the TGI in assay [10] came out at 0.0208 µM; in assay [11], 6.41 µM. In addition, the GI50 in assay [5] was 0.134 µM and 0.156 µM; in assay [6], 0.418 µM; in assay [7], 0.877 µM.

In the case of `Cc1ccccc1-c1cc(=O)c2cc(C)c(C)c(C(=O)O)c2o1`, the TGI in assay [5], in [6], in assay [7] and in assay [8] was more than 100 µM throughout.

In the case of `COc1ccc(C2=NC(CO)[C@H](c3ccccc3)O2)cc1OC` (stereo partly specified), the TGI in assay [5], in [6], in assay [7] and in assay [8] was more than 100 µM throughout.

With `CCCCCCCCCCCCNC(=S)OCCCC`, the TGI in assay [5], in [6], in assay [7] and in assay [8] was more than 100 µM throughout.

For the origin of these results see PubChem BioAssay (NCI).
